The values that follow are results of earlier work, collected in patent US6541263B2, “Determination of corticosteroids in human plasma using micromass LC/MS/MS” (Euro-Celtique, S.A. Luxembourg, priority 2001, dated 2003).

The subject of the data set is eosinophils. As to conditions: IL-5-mediated survival.

`C[C@]12CCC(=O)C=C1CC[C@@H]1[C@@H]2[C@@H](O)C[C@@]2(C)[C@H]1CC[C@]2(O)C(=O)CO` [hydrocortisone]: the “inhibition of IL-5-mediated eosinophil survival” value is “dose-dependent inhibition”.
